# In article PMC8296573, “Synthesis and Biological Evaluation of Fingolimod Derivatives as Antibacterial Agents” (ACS Omega, 2021):
# Read-outs that look alike come from different tables or passages of the source.
# Legend:
# [1] = Cytotoxicity, resazurin staining assay; assay type: cell-based, human; details: human, 24 h incubation
# Protocol: The cytotoxicity of the compounds was assessed on the three different human cell lines, A549, HEp-2, and HL-60, using the redox-based resazurin staining assay. The cells were seeded in clear 96-well plates at a density of 1 × 10^4 cells per well in a volume of 200 μL per well. The adherent cells were let to attach for 24 h before changing the media and adding the compounds (final concentration of 0.25% DMSO). HL-60 were counted and added to the plates at a density of 1 × 10^4 cells per well in a volume of 200 μL directly with the compounds. Untreated cells were used as negative controls, and cells treated with 1% TritonX-100 (Sigma-Aldrich, St. Louis, MO) were used as positive controls for cytotoxicity. The cells were incubated with the compounds for 24 h.
# For the resazurin assay, the media was first removed, and the adherent cells were washed once with PBS. Then, 200 μL of 20 μM resazurin was added per well and cells were incubated for two more hours before the measurement of fluorescence, as mentioned earlier. For HL-60, 10 μL of 400 μM resazurin was added directly to the wells and the cells were incubated for an additional 4 h before the measurement of fluorescence.
# S. aureus ATCC 12598 = assay: Antibacterial activity, pre-exposure; assay type: cell-based, Staphylococcus aureus; details: for Average inhibition %, biofilms viability / Average inhibition %, planktonic cells viability / inhibition at 5 µM / inhibition at 10 µM / inhibition at 15 µM / inhibition at 25 µM: S. aureus ATCC 12598, pre-exposure, ± SD; for inhibition at 5 µM / inhibition at 10 µM / inhibition at 15 µM / inhibition at 25 µM / MIC: Staphylococcus aureus, ATCC12598; for MIC: pre-exposure, 18 h, read-out: MIC S. aureus ATCC 12598
# Protocol: (§1) The antimicrobial activity was assessed in a similar way for the initial screening and the dose–response evaluation against different bacterial strains. With the exception of the post-exposure experiment, the compounds were added to the wells along with the bacteria to test the ability of compounds to prevent bacterial growth and biofilm formation (pre-exposure). The compounds were diluted in DMSO and plated directly in 96-well plates before adding the bacterial culture, and plates were incubated for 18 h under aerobic conditions at 37 °C with shaking (220 rpm). The antibacterial activity of the compounds was assessed on planktonic cells and biofilms separately using two different measurements for each: optical density (turbidity) and resazurin reduction (viability) on planktonic cells and resazurin followed by a crystal violet staining assay (total biomass) on biofilms, as described in the following sections.
# (§2) The resazurin staining was performed according to the protocol previously optimized with a few modifications.[46] Briefly, the planktonic solution was first transferred into a new 96-well plate and the OD of the planktonic solution was measured using a Varioskan LUX Multimode microplate reader (Thermo Scientific, Vantaa, Finland). Then, 10 μL of a 400 μM resazurin (R7017, Sigma-Aldrich, St. Louis, MO) diluted in phosphate-buffered saline (PBS) (Thermo Fisher Scientific, MA) was added to the wells (for a final resazurin concentration of 20 μM). The plate was incubated in the dark with shaking (220 rpm) for about 3–10 min at room temperature with S. aureus and A. baumannii (until the bacteria controls turned pink) or for 20 min at 37 °C with P. aeruginosa. Fluorescence was measured at λex = 560 nm and λem = 590 nm using the top optics of the Varioskan LUX Multimode microplate reader. The planktonic plate was then discarded. The original challenge plate containing the biofilms was washed once with PBS, and 200 μL of a 20 μM resazurin solution was added to the wells. The plate was incubated in the dark at 37 °C with shaking (220 rpm) for 30 min with S. aureus, 60 min with A. baumannii, and 90 min with P. aeruginosa. Fluorescence was measured as described for the planktonic solution. The biofilms were next treated with crystal violet staining.
# (§3) After removing the resazurin solution from the plate, biofilms were fixed with ethanol 100% for 15 min at room temperature. Ethanol was then removed, and the biofilms were left to air-dry completely at RT. Crystal violet, diluted to 1:100 in deionized water from the 2.3% commercial solution (HT90132, Sigma-Aldrich, St. Louis, MO), was added to the wells and, after a 5 min incubation with the dye, the biofilms were washed twice with deionized water and left to air-dry for about 10 min. The dye was solubilized in ethanol 100% for 1 h, and absorbance was measured at 595 nm using a Multiskan Sky microplate spectrophotometer (Thermo Scientific, Vantaa, Finland).
# S. aureus P2 = assay: Antibacterial activity, pre-exposure; assay type: cell-based, Staphylococcus aureus; details: for Average inhibition %, biofilms viability / Average inhibition %, planktonic cells viability / inhibition at 5 µM / inhibition at 10 µM / inhibition at 15 µM / inhibition at 25 µM: S. aureus P2, pre-exposure, ± SD; for MIC / inhibition at 5 µM / inhibition at 10 µM / inhibition at 15 µM / inhibition at 25 µM: Staphylococcus aureus; for MIC: P2, pre-exposure, 18 h
# Protocol: as §1, §2, §3
# [2] = 5 µM, read-out: Average inhibition %, biofilms biomass
# [3] = 5 µM, read-out: Average inhibition %, planktonic cells turbidity
# [4] = 10 µM, read-out: Average inhibition %, biofilms biomass
# [5] = 10 µM, read-out: Average inhibition %, planktonic cells turbidity
# [6] = 15 µM, read-out: Average inhibition %, biofilms biomass
# [7] = 15 µM, read-out: Average inhibition %, planktonic cells turbidity
# [8] = 25 µM, read-out: Average inhibition %, biofilms biomass
# [9] = 25 µM, read-out: Average inhibition %, planktonic cells turbidity
Structure (SMILES),CC50 at 24 h ([1]; A549 cells),CC50 at 24 h ([1]; HEp-2 cells),CC50 at 24 h ([1]; HL-60 cells),"Average inhibition %, biofilms viability (S. aureus ATCC 12598; 5 µM)","Average inhibition %, planktonic cells viability (S. aureus ATCC 12598; 5 µM)","Average inhibition %, biofilms viability (S. aureus ATCC 12598; 10 µM)","Average inhibition %, planktonic cells viability (S. aureus ATCC 12598; 10 µM)","Average inhibition %, biofilms viability (S. aureus ATCC 12598; 15 µM)","Average inhibition %, planktonic cells viability (S. aureus ATCC 12598; 15 µM)","Average inhibition %, biofilms viability (S. aureus ATCC 12598; 25 µM)","Average inhibition %, planktonic cells viability (S. aureus ATCC 12598; 25 µM)",inhibition at 5 µM (S. aureus ATCC 12598; [2]),inhibition at 5 µM (S. aureus ATCC 12598; [3]),inhibition at 10 µM (S. aureus ATCC 12598; [4]),inhibition at 10 µM (S. aureus ATCC 12598; [5]),inhibition at 15 µM (S. aureus ATCC 12598; [6]),inhibition at 15 µM (S. aureus ATCC 12598; [7]),inhibition at 25 µM (S. aureus ATCC 12598; [8]),inhibition at 25 µM (S. aureus ATCC 12598; [9]),MIC (S. aureus ATCC 12598),other results
"CCCCCCCCc1ccc2ccc(CC(N)(CO)CO)nc2c1 [Compound 82, 2-Amino-2-[(7-octylquinolin-2-yl)methyl]propane-1,3-diol]",27.5 ± 3 µM,28.8 ± 1.8 µM,6.5 ± 0.8 µM,12.2 ± 12.8%,13.3 ± 5%,99.1 ± 0.2%,99.8 ± 0%,99.5 ± 0%,99.7 ± 0%,99.7 ± 0.1%,99.6 ± 0.1%,26.3 ± 11.6%,20.6 ± 8.5%,94.4 ± 1.7%,99.6 ± 0.1%,97.1 ± 1.1%,99.7%,94.6 ± 1.4%,99.4 ± 0.2%,10 µM,"Average inhibition %, biofilms viability (S. aureus P2; 5 µM): 23.7 ± 8.8%; Average inhibition %, planktonic cells viability (S. aureus P2; 5 µM): 1 ± 1.8%; Average inhibition %, biofilms viability (S. aureus P2; 10 µM): 99.5 ± 0%; Average inhibition %, planktonic cells viability (S. aureus P2; 10 µM): 99.8 ± 0%; Average inhibition %, biofilms viability (S. aureus P2; 15 µM): 99.8 ± 0%; Average inhibition %, planktonic cells viability (S. aureus P2; 15 µM): 99.6 ± 0%; Average inhibition %, biofilms viability (S. aureus P2; 25 µM): 99.7 ± 0.1%; Average inhibition %, planktonic cells viability (S. aureus P2; 25 µM): 99.5 ± 0%; MIC (S. aureus P2): 10 µM; inhibition at 5 µM (S. aureus P2; [2]): 39.9 ± 7%; inhibition at 5 µM (S. aureus P2; [3]): 5 ± 2.2%; inhibition at 10 µM (S. aureus P2; [4]): 97.6 ± 0.4%; inhibition at 10 µM (S. aureus P2; [5]): 99.6%; inhibition at 15 µM (S. aureus P2; [6]): 97.2 ± 0.8%; inhibition at 15 µM (S. aureus P2; [7]): 99.7%; inhibition at 25 µM (S. aureus P2; [8]): 96.4 ± 0.6%; inhibition at 25 µM (S. aureus P2; [9]): 99.4 ± 0.1%"
"CCCCCCCCCCc1ccc(C(O)CC(N)(CO)CO)cc1 (centres unmarked) [Compound 55, 3-Amino-3-(hydroxymethyl)-1-(4-decylphenyl)butane-1,4-diol]",35.3 ± 5.1 µM,33.9 ± 1.2 µM,7.4 ± 6.9 µM,15.2 ± 6.4%,7.6 ± 8.8%,99.2 ± 0.1%,99.8 ± 0%,99.5 ± 0.3%,99.7 ± 0%,99.6 ± 0%,99.6 ± 0.1%,27.6 ± 19.6%,21.2 ± 6.5%,94.3 ± 1.2%,99.6 ± 0.1%,93 ± 1.1%,99.4 ± 0.2%,90.2 ± 2.1%,98.9 ± 0.3%,10 µM,"Average inhibition %, biofilms viability (S. aureus P2; 5 µM): 32.1 ± 8.5%; Average inhibition %, planktonic cells viability (S. aureus P2; 5 µM): 3.4 ± 5.8%; Average inhibition %, biofilms viability (S. aureus P2; 10 µM): 99.4 ± 0.2%; Average inhibition %, planktonic cells viability (S. aureus P2; 10 µM): 99.8 ± 0%; Average inhibition %, biofilms viability (S. aureus P2; 15 µM): 99.6 ± 0%; Average inhibition %, planktonic cells viability (S. aureus P2; 15 µM): 99.6 ± 0.1%; Average inhibition %, biofilms viability (S. aureus P2; 25 µM): 99.6 ± 0%; Average inhibition %, planktonic cells viability (S. aureus P2; 25 µM): 99.5 ± 0.1%; MIC (S. aureus P2): 10 µM; inhibition at 5 µM (S. aureus P2; [2]): 23.6 ± 10.9%; inhibition at 5 µM (S. aureus P2; [3]): 14 ± 3%; inhibition at 10 µM (S. aureus P2; [4]): 96.5 ± 0.7%; inhibition at 10 µM (S. aureus P2; [5]): 99.6 ± 0.1%; inhibition at 15 µM (S. aureus P2; [6]): 95.1 ± 0.2%; inhibition at 15 µM (S. aureus P2; [7]): 99.3 ± 0.1%; inhibition at 25 µM (S. aureus P2; [8]): 91.6 ± 1.2%; inhibition at 25 µM (S. aureus P2; [9]): 98.8 ± 0.2%"
